# Source: PubChem BioAssay AID651717 (Broad Institute, 2012)
# Test system: mESC Bmi1-luciferase reporter, firefly/renilla ratio, 24 h
# Test: compounds raising Bmi1 reporter signal – mouse embryonic stem cells, luciferase, cherry-pick, esBAF inhibitor project, dose response (AID 651717);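 further: luciferase knocked into Bmi1 locus with EF-1a renilla as cell number control; rising ratio signals esBAF inhibition which derepresses Bmi1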
row,Structure (SMILES),AC40 [µM]
1,CC(=O)c1ccc(S(=O)(=O)N(Cc2cc3cc4c(cc3[nH]c2=O)OCCO4)CC2CCCO2)cc1 (stereo unspecified),15.2
2,CN(C)c1ccc(C(=O)c2ccccc2)cc1,2.69
3,Clc1ccc(-c2nnc(-c3cccc4ccccc34)o2)cc1,1.79
4,CCCc1nc2c3ccccc3ccn2c1Cc1ccc(C)cc1,0.443
5,O=C(Nc1ccc2c(c1)COC2=O)c1ccc(Cl)c(Cl)c1,2.46
6,CC(C)CN=c1cc(-c2ccccc2)oc2ccc(Cl)cc12,2.27
7,Cn1c(-c2ncc(F)cc2F)cc2onc(-c3c(F)cccc3Cl)c2c1=O,0.47
8,Cc1ccc(NC(=O)C2CC3CCC2C3)c(Br)c1 (stereo unspecified),1.22
9,Cn1c(/C=C/c2ccc(Br)cc2)nc2ccccc2c1=O,4.88
10,CC(C)Nc1nc(Cl)nc(Nc2ccccc2)n1,5.89
11,COc1ccc(-c2nc(C#N)c(NC(C)C)o2)cc1,2.38
12,Cc1ccc(OCc2cc(C(=O)N(C)CCc3ccccn3)no2)cc1C,2.28
13,Cn1cccc1C(=O)OCc1ccc(C(C)(C)C)cc1,4.64
14,CC(C)C(=O)Nc1ccc(C(=O)c2ccccc2)cc1,8.18
15,Cc1sc2nc(-c3ccc(Br)cc3)oc(=O)c2c1C,1.61
16,CN(c1cccc(NC(=O)c2ccc(C(C)(C)C)cc2)c1)S(C)(=O)=O,2.97
17,O=C(c1ccc(Cl)cc1)c1cnc(Nc2ccccc2)s1,1.46
18,O=C(N/N=C/c1cccs1)c1cccc2cc[nH]c12,6.06
19,Cc1ccccc1C(=O)c1cccn1CC(=O)NCc1ccccc1Cl,9.17
20,Cc1ccc(NC(=O)Nc2ccc(F)c(Cl)c2)cc1,1.85
21,O=C(Nc1ccccn1)c1c(O)c2cccc3c2n(c1=O)CCC3,18.4
22,COc1ccc(/C=N/OCc2ccccc2C#N)c(OC)c1,6.27
23,Cc1ccn2cc(C(=O)Nc3nnc(C)s3)nc2c1,1.17
24,O=C(Nc1ccc(F)cc1)c1ccccc1F,5.97
25,Cc1cccc(NC(=O)c2cc(-c3cc(Cl)ccc3O)n[nH]2)c1,2.08
26,COc1ccc(CNC(=O)Nc2ccc(C)cc2)cc1,8.63

row,Structure (SMILES),AC40 [µM]
1,C=CCn1c(O)c(C=Nc2ccccc2)sc1=S,5.13
2,COc1ccc(N2CCN(C(=O)C3Cc4ccccc4CN3C(=O)c3ccccc3)CC2)cc1 (stereo unspecified),16.5
3,Nc1ccc2c(c1)Cc1cc(N)c(Cl)cc1-2,3.41
4,Cc1ccc(NC(=O)NC2CCCCCCC2)cc1C,4.22
5,COc1cc(Cl)ccc1OCc1cc(C(=O)N2CCN(C)C(=O)[C@@H]2C)no1,1.64
6,CC(=O)NCCNc1nc2cc(-c3ccc(C)cc3)sc2c(=O)n1C,14.3
7,O=C(Cc1ccccc1)Nc1nc(-c2cccs2)cs1,8.2
8,Nc1ccc2c(c1)C(=O)c1ccc(N)cc1-2,0.55
9,c1ccc(CCNc2ccc3c(c2)Cc2ccccc2-3)nc1,1.53
10,CCC(=O)n1nc(-c2ccc(Cl)cc2)nc1SC,3.71
11,CCN(CC)C(=O)c1nc(-c2cccc3ccccc23)no1,13.1
12,CC(C)c1ccc(NC(=O)c2cccnc2)cc1,2.6
13,CCOC(=O)C1=C(CSc2nc(-c3ccccc3)ccc2C#N)OC(N)=C(C#N)C1c1cccnc1 (stereo unspecified),2.89
14,COc1ccc(NC(=O)c2csc3c2CCCC3)cc1,0.459
15,COc1ccc(NC(=O)c2cc(C3CC3)on2)c(OC)c1,11.8
16,COc1ccc(CCn2nnc3ccccc3c2=O)cc1OC,4.92
17,CN(CC(=O)Nc1cccc(F)c1)C(=O)c1sc2ccccc2c1Cl,23.3
18,Cn1cccc1-c1nc2ccc(NC(=O)c3cccs3)cc2[nH]1,11.7
19,c1ccc(-c2ccc(-c3ccccc3)[nH]2)cc1,1.44
20,OC(c1ccccc1)c1nc(/C=C/c2ccccc2)cs1 (stereo unspecified),4.88
21,Clc1ccc(C=NN2CCCCCC2)cc1,0.983
22,CC(NC(=O)c1cc(COc2cccc(C(F)(F)F)c2)on1)c1nccs1 (stereo unspecified),6.45
23,Cc1ccc(Nc2nc(Cl)nc(NC(C)(C)C)n2)cc1,1.47
24,O=C(CCc1nnc(CCc2c[nH]c3ccccc23)o1)NC1CCC1,4.41
25,CCn1c(C)nc2cc(C(=O)NN=Cc3ccccc3OC(F)F)ccc21,1.96
26,COc1ccc(-c2cnc(C(O)c3ccccc3)[nH]2)cc1 (stereo unspecified),1.15

row,Structure (SMILES),AC40 [µM]
1,O=c1c2ccccc2oc2cc(-c3ccc4cc[nH]c4c3)ccc12,1.46
2,CO[C@@H]1CN(C)C(=O)c2ccc(NC(=O)Nc3ccc4c(c3)OCO4)cc2OC[C@@H](C)NC[C@@H]1C,2.93
3,COc1ccc(/C=N/NC(=O)c2cccs2)c2ccccc12,9.35
4,COc1ccccc1Cc1c(-c2ccc(C)cc2)nc2ccc(Cl)cn12,1.18
5,Cc1cc(C)c2c(CN(C)Cc3ccccc3)cc(=O)oc2c1,4.9
6,O=C(c1ccc2ccccc2c1)N1CCN(Cc2ccccc2)CC1,9.83
7,O=C(Nc1ccc(F)cc1)NC1CCCCCCC1,12
8,COc1ccc(Cl)cc1C(=O)NNC(=O)c1cccs1,4.75
9,COc1cc2ccccc2cc1C(=O)NC1CCCC1,8.82
10,COc1ccc(CC(=O)Nc2ccc(-c3cn4ccc(C)cc4n3)cc2)cc1,18.8
11,COc1ccc(Cc2nc(-c3cccc(C)c3)no2)cc1,3.63
12,Cc1ccc(C(=O)Cc2ccccc2)c(O)c1,6.34
13,COc1cc(/C=C/c2ccc(O)cc2)cc(OC)c1,2.31
14,Cc1ccc(O)c(N=Cc2ccc(C)s2)c1,25.8
15,Fc1ccccc1NC(=S)N1CCC(c2ccccc2)C1 (stereo unspecified),0.517
16,O=C1N=C(N2CCCCC2)S/C1=C\c1ccccc1F,2.67
17,O=C(Nc1ccc2c(c1)OCO2)c1cnc(Cl)c(Cl)c1,1.74
18,Cc1nn(Cc2c(F)c(F)c(F)c(F)c2F)c(C)c1NC(=O)c1ccc(COc2cc(Cl)ccc2Cl)cc1,3.23
19,ClCCn1cnc2c(SCc3ccccc3)ncnc21,2.74
20,Cn1c(/N=C(\N)c2ccccc2)nc2ccccc21,0.587
21,CC(C)Cn1cnc2c(SCc3ccccc3)nc(N)nc21,8.9
22,O=C(Cc1ccccn1)c1ccc(Cl)cc1,3.14
23,CS(=O)(=O)N1CCN(c2nc3ccccc3s2)CC1,1.24
24,CCn1c(COc2ccccc2C)nc2ccccc21,3.51
25,Nc1cc(OCc2ccccc2)ccc1OCc1ccccc1,5.17
26,Cc1ccc(NC(=O)c2ccc3c(c2)CCN3S(C)(=O)=O)cc1,10.5

row,Structure (SMILES),AC40 [µM]
1,Cc1nc(NCc2ccccc2)sc1C(=O)Nc1ccccc1,8.44
2,CCC(=O)c1ccc(N2CCCCCC2)c(F)c1,4.92
3,Cc1ccnc(NCc2cc(C)ccc2O)c1,12.8
4,O=C(OCc1ccccc1)N1CCC2CC1c1cc(/C=C/CCCSc3ncccn3)ccc12 (stereo unspecified),12.2
5,O=C(Nc1ccccc1Cl)c1cc(=O)c2ccccc2o1,0.468
6,O=C(Cc1ccccc1F)Nc1nc(-c2ccc(F)c(F)c2)cs1,9.65
7,Cc1csc(NC(=O)Cc2c(F)cccc2Cl)n1,8.57
8,COC(=O)N1CCCC(c2cc(C(=O)Nc3ccccc3Cl)no2)C1 (stereo unspecified),3.3
9,CCN(CC(=O)NCc1ccc(F)cc1)C(=O)c1ccc(COc2ccccc2)cc1,25.2
10,CCCCSc1nnc(-c2c[nH]c3ccccc23)n1C,6.69
11,CC(=O)Nc1ccc(-c2nc3c(C)cccc3[nH]2)cc1,1.25
12,Cc1ccsc1CN(C)C(=O)C1CCC(=O)N(CCc2cccc(F)c2)C1 (stereo unspecified),5.77
13,COc1ccc(CNc2nc3ccccc3s2)cc1OC,3.7
14,O=C(c1ccccc1)c1ccc2ccccc2c1,3.04
15,Cc1ccc(C)c(NC(=O)c2cc(-c3ccccc3O)n[nH]2)c1,11.5
16,Cc1ccc(OCc2cc(C(=O)NCCc3cccnc3)no2)cc1C,11.9
17,COc1ccc(C(=O)CCc2ccccc2O)c(OC)c1,3.58
18,Cc1cccc(COc2ccc(/C=N/NC(=O)c3nnn(-c4nonc4N)c3CN3CCCCC3)cc2)c1,34.2
19,O=C1C(=C2CCc3ccccc32)Cc2ccccc21,0.363
20,Cn1c(SCc2c(F)cccc2Cl)nnc1-c1cccs1,11.1
21,O=C(Nc1ccc(Cl)c(Cl)c1)c1ccccc1NC(=O)C1CC=CCC1C(=O)O (stereo unspecified),7.6
22,COc1ccc(C2=Nc3ccccc3NC(=O)C2N(C(=O)c2cnc(C)cn2)c2ccc(N3CCOCC3)cc2)cc1 (stereo unspecified),21.8
23,Cc1c(C(=O)N2CCCc3ccccc32)sc2nc(-c3ccccc3)cn12,12.5
24,CN(CC(=O)Nc1ccc(Cl)c(C(F)(F)F)c1)C(=O)CCCNC(=O)c1ccc(Cl)cc1,16.8
25,CC(C)c1ccc(/C=N/NC(=O)CCNC(=O)c2ccccc2)cc1,22.8
26,COC(=O)c1ccc2[nH]c(C3(O)CCCCC3)c(C)c2c1,5.55

row,Structure (SMILES),AC40 [µM]
1,CCNC(=O)O/N=C(\C)c1sc(-c2ccccc2)nc1C,3.29
2,CC(=O)Nc1nc(-c2ccc(-c3ccccc3)cc2)cs1,1.56
3,COc1ccccc1-c1cnc(C(O)c2ccc(C)cc2)[nH]1 (stereo unspecified),10.2
4,N/C(=N\OC(=O)Cc1cccs1)c1ccc(Cl)cc1,18.1
5,O=C(Nc1nc2ccc(Cl)cc2s1)c1cccc(N2C(=O)CCC2=O)c1,3.25
6,CCCCc1nc2cc(C(=O)N3CCCCC3C(=O)OC)ccc2o1 (stereo unspecified),13
7,COCOc1ccc(-c2cc(=O)c3c(O)cc(OCOC)cc3o2)cc1,8.4
8,Cc1ccc(-c2csc(NC(=O)c3ccno3)n2)cc1,8.99
9,CC(=O)Nc1ccc(NC(=O)c2cc(-c3ccc(F)cc3C)n[nH]2)cc1,7.08
10,CC1CCCC(C)N1CCCNC(=O)c1ccc2nc(N3CCCCC3)sc2c1 (stereo unspecified),9
11,COc1ccc2c(=O)c(-c3ccc(OC)c(OC)c3)coc2c1,2.69
12,COc1cccc2cc(C(=O)N3CCc4ccccc4C3)c(=O)oc12,26.9
13,O=C(c1ccc(Cl)cc1)c1cnc(-c2ccc(Cl)cc2)s1,2.84
14,COc1ccc(-c2csc(C(O)c3ccccc3)n2)cn1 (stereo unspecified),9.65
15,Cc1ccc(C)c(N2CCN(C(=O)CCc3nc(-c4ccccc4Br)no3)CC2)c1,15.8
16,Cn1c2ccccc2c(=O)c2cc(C#Cc3ccsc3)ccc21,1.08
17,Cc1ccc(C)c(N2CCN(C(=O)CCc3nc(-c4cccc(C(F)(F)F)c4)no3)CC2)c1,7.5
18,Cc1ccc(C(=O)NNC(=O)c2ccc3ccccc3c2)cc1,7.86
19,O=C(Nc1ccncc1)c1ccc2ncsc2c1,22.8
20,Cc1c(Cl)cccc1NC(=O)c1cc(C2CC2)on1,1.81
21,CN(C)c1ccc(-c2csc(C(O)c3ccccc3)n2)cc1 (stereo unspecified),0.311
22,CCc1sc(C(=O)N2CCN(CC(=O)Nc3cccc(F)c3)CC2)cc1C,3.04
